Results from PMC9940855, “First-in-Class Dual Hybrid Carbonic Anhydrase Inhibitors and Transient Receptor Potential Vanilloid 1 Agonists Revert Oxaliplatin-Induced Neuropathy” (Journal of Medicinal Chemistry, 2023).

Columns and labels:
hCA IX = molecular target: T1, hCA IX (Homo sapiens, UniProt Q16790); type: biochemical
T1 construct: made in house

hCA I = hCA I (Homo sapiens, UniProt P00915); settings: read-out: KI hCA I; stopped-flow CO2 hydrase assay; mean from three different assays, errors ±5–10%
hCA I, sequence (P00915 whole entry): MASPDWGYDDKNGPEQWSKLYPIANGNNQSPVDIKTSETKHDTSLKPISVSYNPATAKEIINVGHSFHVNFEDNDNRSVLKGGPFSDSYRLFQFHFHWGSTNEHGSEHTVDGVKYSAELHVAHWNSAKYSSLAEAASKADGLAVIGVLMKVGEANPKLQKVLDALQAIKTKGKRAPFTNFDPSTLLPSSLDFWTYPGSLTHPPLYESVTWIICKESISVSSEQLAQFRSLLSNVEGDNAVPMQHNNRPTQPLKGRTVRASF

hCA II = hCA II (Homo sapiens, UniProt P00918); settings: read-out: KI hCA II; stopped-flow CO2 hydrase assay; mean from three different assays, errors ±5–10%
hCA VII = hCA VII (Homo sapiens, UniProt P43166); settings: read-out: KI hCA VII; stopped-flow CO2 hydrase assay; mean from three different assays, errors ±5–10%
hCA VII, sequence (P43166 whole entry): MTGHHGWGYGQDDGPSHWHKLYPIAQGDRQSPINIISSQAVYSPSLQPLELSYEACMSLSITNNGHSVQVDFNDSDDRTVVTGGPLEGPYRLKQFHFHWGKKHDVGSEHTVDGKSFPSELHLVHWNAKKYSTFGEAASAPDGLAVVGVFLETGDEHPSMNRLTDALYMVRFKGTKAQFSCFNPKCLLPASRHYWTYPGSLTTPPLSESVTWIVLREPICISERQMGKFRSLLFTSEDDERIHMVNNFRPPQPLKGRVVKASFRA

hCA XII = hCA XII (Homo sapiens, UniProt O43570); settings: read-out: KI hCA XII; stopped-flow CO2 hydrase assay; mean from three different assays, errors ±5–10%
hCA XII, sequence (O43570 25-354): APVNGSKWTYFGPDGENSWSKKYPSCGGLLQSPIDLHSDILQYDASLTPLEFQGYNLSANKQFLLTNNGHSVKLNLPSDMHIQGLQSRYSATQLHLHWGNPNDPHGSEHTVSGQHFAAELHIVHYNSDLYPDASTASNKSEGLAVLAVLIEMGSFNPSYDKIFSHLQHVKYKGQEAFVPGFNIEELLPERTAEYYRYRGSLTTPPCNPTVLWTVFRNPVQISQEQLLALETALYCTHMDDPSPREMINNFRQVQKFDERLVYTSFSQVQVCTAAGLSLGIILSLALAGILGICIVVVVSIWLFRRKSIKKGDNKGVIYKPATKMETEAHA

hCA IV = hCA IV (Homo sapiens, UniProt P22748); settings: read-out: KI hCA IV; stopped-flow CO2 hydrase assay; mean from three different assays, errors ±5–10%
hCA IV, sequence (P22748 19-312): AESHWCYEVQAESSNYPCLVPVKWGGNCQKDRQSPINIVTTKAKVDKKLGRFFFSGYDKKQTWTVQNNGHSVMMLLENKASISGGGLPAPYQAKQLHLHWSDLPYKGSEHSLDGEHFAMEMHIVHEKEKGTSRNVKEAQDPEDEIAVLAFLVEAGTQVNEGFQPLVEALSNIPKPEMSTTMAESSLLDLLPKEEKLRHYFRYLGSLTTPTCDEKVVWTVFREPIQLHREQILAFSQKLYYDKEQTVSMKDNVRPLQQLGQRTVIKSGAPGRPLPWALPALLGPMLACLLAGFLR

## NS(=O)(=O)c1ccc(N2CC[C@H](NC(=O)Nc3ccc([N+](=O)[O-])cc3)C2)nc1 [19b, (S)-6-(3-(3-(4-Nitrophenyl)ureido)pyrrolidin-1-yl)pyridine-3-sulfonamide]
hCA IX
  Ki: 0.0675 µM
hCA I
  Ki: 0.8 µM
hCA II
  Ki: 0.525 µM
hCA VII
  Ki: 0.0082 µM
hCA XII
  Ki: 0.0085 µM

## NS(=O)(=O)c1ccc(N2CC[C@H](NC(=S)Nc3ccc(C4c5ccc(O)cc5Oc5cc(O)ccc54)c(C(=O)O)c3)C2)nc1 [17b, (S)-2-(3,6-Dihydroxy-9H-xanthen-9-yl)-5-(3-(1-(5-sulfamoylpyridin-2-yl)pyrrolidin-3-yl)thioureido)benzoic Acid]
hCA IX
  Ki: 0.0086 µM
hCA I
  Ki: 0.0915 µM
hCA II
  Ki: 0.0429 µM
hCA IV
  Ki: 5.22 µM
hCA VII
  Ki: 0.0149 µM
hCA XII
  Ki: 0.0278 µM

## NS(=O)(=O)c1ccc(NC(=O)N[C@@H]2CCN(c3ccccn3)C2)cc1 [41a, (R)-4-(3-(1-(Pyridin-2-yl)pyrrolidin-3-yl)ureido)benzenesulfonamide]
hCA IX
  Ki: 0.0291 µM
hCA I
  Ki: 0.0583 µM
hCA II
  Ki: 0.008 µM
hCA IV
  Ki: 3.51 µM
hCA VII
  Ki: 0.0095 µM
hCA XII
  Ki: 0.0316 µM

## NS(=O)(=O)c1ccc(N2CC[C@H](NC(=S)Nc3ccccc3F)C2)nc1 [21b, (S)-6-(3-(3-(2-Fluorophenyl)thioureido)pyrrolidin-1-yl)pyridine-3-sulfonamide]
hCA IX
  Ki: 0.0072 µM
hCA I
  Ki: 0.0687 µM
hCA II
  Ki: 0.0313 µM
hCA IV
  Ki: 0.843 µM
hCA XII
  Ki: 0.041 µM

## NS(=O)(=O)c1ccc(N2CC[C@H](NC(=O)Nc3ccc(C(F)(F)F)cc3)C2)nc1 [20b, (S)-6-(3-(3-(4-(Trifluoromethyl)phenyl)ureido)pyrrolidin-1-yl)pyridine-3-sulfonamide]
hCA II
  Ki: 0.0353 µM
hCA XII
  Ki: 0.0487 µM

## NS(=O)(=O)c1ccc(N2CC[C@@H](NC(=O)Nc3ccc(C(F)(F)F)cc3)C2)nc1 [20a, (R)-6-(3-(3-(4-(Trifluoromethyl)phenyl)ureido)pyrrolidin-1-yl)pyridine-3-sulfonamide]
hCA II
  Ki: 0.409 µM
hCA XII
  Ki: 0.0442 µM

## NS(=O)(=O)c1ccc(N2CC[C@@H](NC(=O)NS(=O)(=O)c3ccccc3)C2)nc1 [24a, (R)-6-(3-(3-(Phenylsulfonyl)ureido)pyrrolidin-1-yl)pyridine-3-sulfonamide]
hCA IX
  Ki: 0.0275 µM
hCA I
  Ki: 0.0195 µM
hCA II
  Ki: 0.513 µM
hCA IV
  Ki: 0.0366 µM
hCA VII
  Ki: 0.0788 µM
hCA XII
  Ki: 0.0493 µM

## NS(=O)(=O)c1cccc(NC(=O)N[C@H]2CCN(c3cccc([N+](=O)[O-])n3)C2)c1 [44b, (S)-3-(3-(1-(6-Nitropyridin-2-yl)pyrrolidin-3-yl)ureido)benzenesulfonamide]
hCA IX
  Ki: 0.193 µM
hCA I
  Ki: 0.0872 µM
hCA II
  Ki: 0.0066 µM
hCA IV
  Ki: 9.55 µM
hCA VII
  Ki: 0.0177 µM
hCA XII
  Ki: 0.0484 µM

## NS(=O)(=O)c1cccc(NC(=S)N[C@H]2CCN(c3ccc(C(F)(F)F)cn3)C2)c1 [40b, (S)-3-(3-(1-(5-(Trifluoromethyl)pyridin-2-yl)pyrrolidin-3-yl)thioureido)benzenesulfonamide]
hCA IX
  Ki: 0.0079 µM
hCA I
  Ki: 0.413 µM
hCA VII
  Ki: 0.0142 µM

## NS(=O)(=O)c1ccc(N2CC[C@H](NC(=O)Nc3ccc(F)cc3)C2)nc1 [7b, (S)-6-(3-(3-(4-Fluorophenyl)ureido)pyrrolidin-1-yl)pyridine-3-sulfonamide]
hCA IX
  Ki: 0.0202 µM
hCA II
  Ki: 0.187 µM
hCA IV
  Ki: 8.24 µM
hCA VII
  Ki: 0.0121 µM
hCA XII
  Ki: 0.0503 µM

## COc1ccccc1NC(=O)N[C@H]1CCN(c2ccc(S(N)(=O)=O)cn2)C1 [18b, (S)-6-(3-(3-(2-Methoxyphenyl)ureido)pyrrolidin-1-yl)pyridine-3-sulfonamide]
hCA IX
  Ki: 0.0618 µM
hCA I
  Ki: 0.476 µM
hCA II
  Ki: 0.31 µM
hCA IV
  Ki: 7.86 µM
hCA VII
  Ki: 0.0588 µM
hCA XII
  Ki: 0.0385 µM

## NS(=O)(=O)c1ccc(NC(=S)N[C@H]2CCN(c3cccc([N+](=O)[O-])n3)C2)cc1 [37b, (S)-4-(3-(1-(6-Nitropyridin-2-yl)pyrrolidin-3-yl)thioureido)benzenesulfonamide]
hCA IX
  Ki: 0.0013 µM
hCA I
  Ki: 0.0545 µM
hCA II
  Ki: 0.0049 µM
hCA IV
  Ki: 3.2 µM
hCA VII
  Ki: 0.0077 µM
hCA XII
  Ki: 0.0088 µM

## NS(=O)(=O)c1ccc(N2CC[C@H](NC(=O)Nc3c(F)cc(F)cc3Br)C2)nc1 [22b, (S)-6-(3-(3-(2-Bromo-4,6-difluorophenyl)ureido)pyrrolidin-1-yl)pyridine-3-sulfonamide]
hCA II
  Ki: 0.482 µM
hCA IV
  Ki: 8.2 µM
hCA VII
  Ki: 0.014 µM
hCA XII
  Ki: 0.0082 µM

## NS(=O)(=O)c1ccc(NC(=O)N[C@H]2CCN(c3ccc(C(F)(F)F)cn3)C2)cc1 [45b, (S)-4-(3-(1-(5-(Trifluoromethyl)pyridin-2-yl)pyrrolidin-3-yl)ureido)benzenesulfonamide]
hCA IX
  Ki: 0.054 µM
hCA I
  Ki: 0.0686 µM
hCA II
  Ki: 0.0463 µM
hCA IV
  Ki: 9.71 µM
hCA VII
  Ki: 0.0128 µM
hCA XII
  Ki: 0.0086 µM

## NS(=O)(=O)c1ccc(N2CCC(NC(=O)Nc3ccc(Cl)c(C(F)(F)F)c3)C2)nc1 (stereo in doubt) [10b, (R)-6-(3-(3-(4-Chloro-3-(trifluoromethyl)phenyl)ureido)pyrrolidin-1-yl)pyridine-3-sulfonamide]
hCA IX
  Ki: 0.0775 µM
hCA I
  Ki: 0.707 µM
hCA IV
  Ki: 8.52 µM
hCA VII
  Ki: 0.0156 µM

## NS(=O)(=O)c1ccc(N2CC[C@H](NC(=O)NS(=O)(=O)c3ccccc3Cl)C2)nc1 [25b, (S)-6-(3-(3-((2-Chlorophenyl)sulfonyl)ureido)pyrrolidin-1-yl)pyridine-3-sulfonamide]
hCA IX
  Ki: 0.0097 µM
hCA I
  Ki: 0.0892 µM
hCA II
  Ki: 0.0385 µM
hCA IV
  Ki: 0.911 µM
hCA VII
  Ki: 0.0464 µM

## NS(=O)(=O)c1ccc(N2CC[C@H](NC(=S)Nc3ccccc3)C2)nc1 [9b, (S)-6-(3-(3-Phenylthioureido)pyrrolidin-1-yl)pyridine-3-sulfonamide]
hCA IX
  Ki: 0.0541 µM
hCA I
  Ki: 0.321 µM
hCA IV
  Ki: 9.48 µM
hCA VII
  Ki: 0.0116 µM
hCA XII
  Ki: 0.0234 µM

## NS(=O)(=O)c1ccc(N2CC[C@H](NC(=O)Nc3ccccc3F)C2)nc1 [11b, (S)-6-(3-(3-(2-Fluorophenyl)ureido)pyrrolidin-1-yl)pyridine-3-sulfonamide]
hCA I
  Ki: 0.476 µM
hCA VII
  Ki: 0.0116 µM
hCA XII
  Ki: 0.0439 µM

## NS(=O)(=O)c1ccc(N2CC[C@H](NC(=O)Nc3ccc(Cl)c(Cl)c3)C2)nc1 [14b, (S)-6-(3-(3-(3,4-Dichlorophenyl)ureido)pyrrolidin-1-yl)pyridine-3-sulfonamide]
hCA II
  Ki: 0.556 µM
hCA IV
  Ki: 2.53 µM
hCA VII
  Ki: 0.0121 µM
hCA XII
  Ki: 0.0446 µM

## NS(=O)(=O)c1cccc(NC(=O)N[C@@H]2CCN(c3ccccn3)C2)c1 [42a, (R)-3-(3-(1-(Pyridin-2-yl)pyrrolidin-3-yl)ureido)benzenesulfonamide]
hCA IX
  Ki: 0.126 µM
hCA I
  Ki: 0.0096 µM
hCA II
  Ki: 0.0017 µM
hCA IV
  Ki: 2.48 µM
hCA VII
  Ki: 0.0081 µM
hCA XII
  Ki: 0.0082 µM

## NS(=O)(=O)c1ccc(N2CC[C@@H](NC(=O)NS(=O)(=O)c3ccccc3Cl)C2)nc1 [25a, (R)-6-(3-(3-((2-Chlorophenyl)sulfonyl)ureido)pyrrolidin-1-yl)pyridine-3-sulfonamide]
hCA IX
  Ki: 0.0092 µM
hCA I
  Ki: 0.0723 µM
hCA II
  Ki: 0.0154 µM
hCA IV
  Ki: 0.705 µM
hCA VII
  Ki: 0.0301 µM

## NS(=O)(=O)c1ccc(N2CC[C@H](NC(=O)Nc3ccc(Oc4ccccc4)cc3)C2)nc1 [13b, (S)-6-(3-(3-(4-Phenoxyphenyl)ureido)pyrrolidin-1-yl)pyridine-3-sulfonamide]
hCA IX
  Ki: 0.0898 µM
hCA VII
  Ki: 0.052 µM
hCA XII
  Ki: 0.0899 µM

## NS(=O)(=O)c1ccc(N2CC[C@H](NC(=S)Nc3ccc(F)cc3)C2)nc1 [8b, (S)-6-(3-(3-(4-Fluorophenyl)thioureido)pyrrolidin-1-yl)pyridine-3-sulfonamide]
hCA IX
  Ki: 0.0273 µM
hCA IV
  Ki: 2.69 µM
hCA VII
  Ki: 0.0026 µM
hCA XII
  Ki: 0.0354 µM

## NS(=O)(=O)c1ccc(N2CC[C@H](NC(=O)Nc3cc(C(F)(F)F)cc(C(F)(F)F)c3)C2)nc1 [16b, (S)-6-(3-(3-(3,5-Bis(trifluoromethyl)phenyl)ureido)pyrrolidin-1-yl)pyridine-3-sulfonamide]
hCA IX
  Ki: 0.0549 µM
hCA I
  Ki: 0.625 µM
hCA IV
  Ki: 2.5 µM
hCA VII
  Ki: 0.0083 µM
hCA XII
  Ki: 0.0094 µM

## NS(=O)(=O)c1cccc(NC(=O)N[C@H]2CCN(c3ccc(C(F)(F)F)cn3)C2)c1 [46b, (S)-3-(3-(1-(5-(Trifluoromethyl)pyridin-2-yl)pyrrolidin-3-yl)ureido)benzenesulfonamide]
hCA I
  Ki: 0.305 µM
hCA II
  Ki: 0.0089 µM
hCA XII
  Ki: 0.0089 µM

## NS(=O)(=O)c1ccc(N2CC[C@@H](NC(=S)Nc3ccccc3)C2)nc1 [9a, (R)-6-(3-(3-Phenylthioureido)pyrrolidin-1-yl)pyridine-3-sulfonamide]
hCA IX
  Ki: 0.0255 µM
hCA I
  Ki: 0.164 µM
hCA IV
  Ki: 3.73 µM
hCA VII
  Ki: 0.0085 µM
hCA XII
  Ki: 0.0593 µM

## NS(=O)(=O)c1ccc(N2CC[C@@H](NC(=O)Nc3cc(C(F)(F)F)cc(C(F)(F)F)c3)C2)nc1 [16a, (R)-6-(3-(3-(3,5-Bis(trifluoromethyl)phenyl)ureido)pyrrolidin-1-yl)pyridine-3-sulfonamide]
hCA IX
  Ki: 1.44 µM
hCA I
  Ki: 0.903 µM
hCA IV
  Ki: 5.16 µM
hCA VII
  Ki: 0.0408 µM
hCA XII
  Ki: 0.0379 µM

## NS(=O)(=O)c1ccc(N2CC[C@@H](NC(=S)Nc3ccc(F)cc3)C2)nc1 [8a, (R)-6-(3-(3-(4-Fluorophenyl)thioureido)pyrrolidin-1-yl)pyridine-3-sulfonamide]
hCA IX
  Ki: 0.0308 µM
hCA IV
  Ki: 3.12 µM
hCA VII
  Ki: 0.0086 µM
hCA XII
  Ki: 0.0395 µM

## NS(=O)(=O)c1ccc(N2CC[C@H](NC(=O)Nc3ccccc3Cl)C2)nc1 [12b, (S)-6-(3-(3-(2-Chlorophenyl)ureido)pyrrolidin-1-yl)pyridine-3-sulfonamide]
hCA IX
  Ki: 0.0229 µM
hCA I
  Ki: 0.393 µM
hCA IV
  Ki: 2.03 µM
hCA VII
  Ki: 0.0009 µM
hCA XII
  Ki: 0.0417 µM
